Target: T1, purified human HDAC6 (Homo sapiens, UniProt Q9UBN7)
T1 construct: purchased BPS Bioscience 5006
T1 sequence (Q9UBN7 1-1215): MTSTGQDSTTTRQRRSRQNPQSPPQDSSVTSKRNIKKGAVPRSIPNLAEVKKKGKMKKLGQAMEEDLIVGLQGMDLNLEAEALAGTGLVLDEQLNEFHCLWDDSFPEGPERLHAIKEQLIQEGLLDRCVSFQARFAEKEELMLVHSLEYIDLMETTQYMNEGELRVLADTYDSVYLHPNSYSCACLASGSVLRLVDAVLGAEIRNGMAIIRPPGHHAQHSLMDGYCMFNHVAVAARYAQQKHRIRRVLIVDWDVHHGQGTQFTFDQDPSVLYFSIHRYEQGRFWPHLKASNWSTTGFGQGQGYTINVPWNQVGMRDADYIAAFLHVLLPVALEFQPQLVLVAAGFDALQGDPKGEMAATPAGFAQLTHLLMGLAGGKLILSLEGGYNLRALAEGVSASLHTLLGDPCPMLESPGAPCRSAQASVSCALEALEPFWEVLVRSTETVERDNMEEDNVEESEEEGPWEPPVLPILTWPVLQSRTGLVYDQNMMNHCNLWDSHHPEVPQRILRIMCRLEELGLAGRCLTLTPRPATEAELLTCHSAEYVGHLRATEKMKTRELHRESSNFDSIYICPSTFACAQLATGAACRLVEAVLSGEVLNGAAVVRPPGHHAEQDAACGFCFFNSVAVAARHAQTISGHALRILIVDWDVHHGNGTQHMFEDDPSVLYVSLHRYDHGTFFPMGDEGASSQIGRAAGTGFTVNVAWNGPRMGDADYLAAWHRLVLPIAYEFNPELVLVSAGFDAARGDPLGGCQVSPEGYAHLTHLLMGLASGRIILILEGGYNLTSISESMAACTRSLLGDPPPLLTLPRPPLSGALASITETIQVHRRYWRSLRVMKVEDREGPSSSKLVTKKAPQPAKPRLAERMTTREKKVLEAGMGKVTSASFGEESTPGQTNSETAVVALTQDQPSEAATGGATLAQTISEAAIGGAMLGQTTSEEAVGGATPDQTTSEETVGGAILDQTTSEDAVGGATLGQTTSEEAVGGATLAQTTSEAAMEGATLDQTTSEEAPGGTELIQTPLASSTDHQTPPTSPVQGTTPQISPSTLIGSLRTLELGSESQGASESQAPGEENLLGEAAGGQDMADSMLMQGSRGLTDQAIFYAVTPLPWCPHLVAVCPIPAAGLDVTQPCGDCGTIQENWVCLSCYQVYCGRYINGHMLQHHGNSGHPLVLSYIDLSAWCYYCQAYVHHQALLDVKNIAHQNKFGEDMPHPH
Assay: HDAC6 Enzyme Assay
Format: biochemical
Conditions: bin: greater than 500 nM and less than 1 μM (lower bound in nM, upper bound in μM)
Procedure, shortened: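 Deacetylated product quantified after trypsin digestion as released AMC (340/460 nm), following a 1 h, 30 °C reaction of human HDAC6 with Ac-RGK(Ac)-AMC peptide, quenched by trichostatin A. IC50 derived from DMSO-normalized curves.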

Row | IC50 [nM] | Compound
1 | 500 to 1000 | CC(NC(=O)c1cccc(S(C)(=O)=O)c1)c1cccc(C(=O)NO)c1 (stereo not shown) [Compound I-199, N-(1-{3-[(hydroxyamino)carbonyl]phenyl}ethyl)-3-(methylsulfonyl)benzamide]
2 | 500 to 1000 | C[C@H](NC(=O)c1ccc(-c2ccccc2)cc1)c1cccc(C(=O)NO)c1 [Compound I-393, N-((1S)-1-{3-[(hydroxyamino)carbonyl]phenyl}ethyl)biphenyl-4-carboxamide]
3 | 500 to 1000 | CC(C)(C)C(NC(=O)c1cccc(S(C)(=O)=O)c1)c1ccc(C(=O)NO)cc1 (stereo not shown) [Compound I-75, N-(1-{4-[(hydroxyamino)carbonyl]phenyl}-2,2-dimethylpropyl)-3-(methylsulfonyl)benzamide]
4 | 500 to 1000 | Cc1cc(C)c(CC(=O)NC(c2ccc(C(=O)NO)cc2)C(C)C)c(C)c1 (stereo not shown) [Compound I-28, N-hydroxy-4-{1-[(mesitylacetyl)amino]-2-methylpropyl}benzamide]

Same assay, conditions: bin: greater than 1 μM

Row | IC50 [nM] | Compound
5 | > 1000 | CC(C)c1ccc(CC(=O)NC(C)c2ccc(C(=O)NO)cc2)cc1 (stereo not shown) [Compound I-285, N-hydroxy-4-(1-{[(4-isopropylphenyl)acetyl]amino}ethyl)benzamide]
6 | > 1000 | CC(NC(=O)CC(C)(C)C)c1ccc(C(=O)NO)cc1 (stereo not shown) [Compound I-144, 4-{1-[(3,3-dimethylbutanoyl)amino]ethyl}-N-hydroxybenzamide]
7 | > 1000 | CC(NC(=O)c1cnnc2ccccc12)c1ccc(C(=O)NO)cc1 (stereo not shown) [Compound I-56, N-(1-{4-[(hydroxyamino)carbonyl]phenyl}ethyl)cinnoline-4-carboxamide]
8 | > 1000 | CC(NC(=O)CC1CCCC1)c1ccc(C(=O)NO)cc1 (stereo not shown) [Compound I-370, 4-{1-[(cyclopentylacetyl)amino]ethyl}-N-hydroxybenzamide]

Same assay, conditions: purified human HDAC6, substrate Ac-Arg-Gly-Lys(Ac)-AMC, 1 hour at 30° C.; reported as bins

Row | Compound | IC50 [nM]
9 | CC(C)(C)C(NC(=O)c1cc2cc(Cl)ccc2o1)c1ccc(C(=O)NO)cc1 (stereo not shown) [Compound I-270, 5-chloro-N-(1-{4-[(hydroxyamino)carbonyl]phenyl}-2,2-dimethylpropyl)-1-benzofuran-2-carboxamide] | 100 to 500
10 | Cn1cc(C(=O)NC(c2ccc(C(=O)NO)cc2)C(C)(C)C)c2ccccc21 (stereo not shown) [Compound I-107, N-(1-{4-[(hydroxyamino)carbonyl]phenyl}-2,2-dimethylpropyl)-1-methyl-1H-indole-3-carboxamide] | < 100
11 | Cc1nc(C(=O)NC(C)c2ccc(C(=O)NO)cc2)cs1 (stereo not shown) [Compound I-278, N-(1-{4-[(hydroxyamino)carbonyl]phenyl}ethyl)-2-methyl-1,3-thiazole-4-carboxamide] | < 100
12 | C[C@H](NC(=O)c1cc2ccccc2s1)c1ccc(C(=O)NO)cc1 [Compound I-53, N-((1S)-1-{4-[(hydroxyamino)carbonyl]phenyl}ethyl)-1-benzothiophene-2-carboxamide] | < 100
13 | CC(NC(=O)c1ccc(-n2cccc2)cc1)c1ccc(C(=O)NO)cc1 (stereo not shown) [Compound I-63, N-(1-{4-[(hydroxyamino)carbonyl]phenyl}ethyl)-4-(1H-pyrrol-1-yl)benzamide] | < 100
14 | CC(NC(=O)c1ccc2ccccc2c1)c1ccc(C(=O)NO)cc1 (stereo not shown) [Compound I-327, N-(1-{4-[(hydroxyamino)carbonyl]phenyl}ethyl)-2-naphthamide] | < 100
15 | CC(NC(=O)Nc1ccc(C(C)(C)C)cc1)c1ccc(C(=O)NO)cc1 (stereo not shown) [Compound I-140, 4-[1-({[(4-tert-butylphenyl)amino]carbonyl}amino)ethyl]-N-hydroxybenzamide] | < 100
16 | CC(NC(=O)c1ccc(Cl)cc1)c1ccc(C(=O)NO)cc1 (stereo not shown) [Compound I-136, 4-chloro-N-(1-{4-[(hydroxyamino)carbonyl]phenyl}ethyl)benzamide] | < 100
17 | Cc1[nH]c2ccccc2c1CC(=O)NC(c1ccc(C(=O)NO)cc1)C(C)C (stereo not shown) [Compound I-174, N-hydroxy-4-(2-methyl-1-{[(2-methyl-1H-indol-3-yl)acetyl]amino}propyl)benzamide] | 100 to 500
18 | CC(NC(=O)Nc1ccccc1-c1ccccc1)c1ccc(C(=O)NO)cc1 (stereo not shown) [Compound I-384, 4-(1-{[(biphenyl-2-ylamino)carbonyl]amino}ethyl)-N-hydroxybenzamide] | < 100
19 | CCc1ccc(NC(=O)NC(C)c2ccc(C(=O)NO)cc2)cc1 (stereo not shown) [Compound I-381, 4-[1-({[(4-ethylphenyl)amino]carbonyl}amino)ethyl]-N-hydroxybenzamide] | < 100
20 | Cc1nc(C(=O)NC(c2ccc(C(=O)NO)cc2)C(C)(C)C)cs1 (stereo not shown) [Compound I-42, N-(1-{4-[(hydroxyamino)carbonyl]phenyl}-2,2-dimethylpropyl)-2-methyl-1,3-thiazole-4-carboxamide] | 100 to 500
21 | O=C(NO)c1ccc([C@H](NC(=O)C23CC4CC(CC(C4)C2)C3)C2CC2)cc1 [Compound I-46, N-((R)-cyclopropyl{4-[(hydroxyamino)carbonyl]phenyl}methyl)adamantane-1-carboxamide] | 100 to 500
22 | COc1ccc(C(=O)NC(c2ccc(C(=O)NO)cc2)C(C)(C)C)cc1 (stereo not shown) [Compound I-352, N-(1-{4-[(hydroxyamino)carbonyl]phenyl}-2,2-dimethylpropyl)-4-methoxybenzamide] | 100 to 500

Continued, values first:

Row | IC50 [nM] | Compound
23 | 100 to 500 | Cc1[nH]c2c(C)ccc(C)c2c1CC(=O)NC(c1ccc(C(=O)NO)cc1)C(C)C (stereo not shown) [Compound I-220, N-hydroxy-4-(2-methyl-1-{[(2,4,7-trimethyl-1H-indol-3-yl)acetyl]amino}propyl)benzamide]
24 | 100 to 500 | CC(C)[C@@H](NC(=O)C1(C)CCCCC1)c1ccc(C(=O)NO)cc1 [Compound I-126, N-hydroxy-4-((1R)-2-methyl-1-{[(1-methylcyclohexyl)carbonyl]amino}propyl)benzamide]
25 | 100 to 500 | Cc1cc(C(=O)NC(C)c2cccc(C(=O)NO)c2)nn1C (stereo not shown) [Compound I-84, N-(1-{3-[(hydroxyamino)carbonyl]phenyl}ethyl)-1,5-dimethyl-1H-pyrazole-3-carboxamide]
26 | < 100 | CCCC(=O)NC(C)c1ccc(C(=O)NO)cc1 (stereo not shown) [Compound I-243, 4-[1-(butyrylamino)ethyl]-N-hydroxybenzamide]
27 | < 100 | CCC[C@@H](NC(=O)c1cc2ccccc2s1)c1ccc(C(=O)NO)cc1 [Compound I-299, N-((1R)-1-{4-[(hydroxyamino)carbonyl]phenyl}butyl)-1-benzothiophene-2-carboxamide]
28 | 100 to 500 | CC(NC(=O)c1cc2ccccc2n1C)c1cccc(C(=O)NO)c1 (stereo not shown) [Compound I-219, N-(1-{3-[(hydroxyamino)carbonyl]phenyl}ethyl)-1-methyl-1H-indole-2-carboxamide]
29 | < 100 | CC(C)[C@@H](Nc1nc(C(F)(F)F)cs1)c1ccc(C(=O)NO)cc1 [Compound I-529, N-hydroxy-4-((1R)-2-methyl-1-{[4-(trifluoromethyl)-1,3-thiazol-2-yl]amino}propyl)benzamide]
30 | < 100 | CC(C)[C@@H](NC(=O)Nc1c(F)cccc1F)c1ccc(C(=O)NO)cc1 [Compound I-521, 4-[(1R)-1-({[(2,6-difluorophenyl)amino]carbonyl}amino)-2-methylpropyl]-N-hydroxybenzamide]
31 | < 100 | CC(NC(=O)Nc1ccc(F)cc1)c1ccc(C(=O)NO)cc1 (stereo not shown) [Compound I-37, 4-[1-({[(4-fluorophenyl)amino]carbonyl}amino)ethyl]-N-hydroxybenzamide]
32 | 100 to 500 | Cc1cc(C(=O)NC(c2ccc(C(=O)NO)cc2)C(C)C)c(C)o1 (stereo not shown) [Compound I-252, N-(1-{4-[(hydroxyamino)carbonyl]phenyl}-2-methylpropyl)-2,5-dimethyl-3-furamide]
33 | < 100 | CCC[C@@H](NC(=O)c1cc2oc(-c3ccccc3)cc2n1C)c1ccc(C(=O)NO)cc1 [Compound I-222, N-((1R)-1-{4-[(hydroxyamino)carbonyl]phenyl}butyl)-4-methyl-2-phenyl-4H-furo[3,2-b]pyrrole-5-carboxamide]
34 | < 100 | CC(NC(=O)C(C)(C)c1ccc(Cl)cc1)c1ccc(C(=O)NO)cc1 (stereo not shown) [Compound I-378, 4-(1-{[2-(4-chlorophenyl)-2-methylpropanoyl]amino}ethyl)-N-hydroxybenzamide]

— patent US9382197B2, “Substituted hydroxamic acids and uses thereof” (Millennium Pharmaceuticals, Inc., priority 2010, dated 2016)
